From patent publication US20100190795A1, “BETULIN DERIVED COMPOUNDS USEFUL AS ANTIPROTOZOAL AGENTS” (Valtion Teknillinen tutkimuskeskus, priority 2006, published 2010)

Tested on: Leishmania
Experiment: Alamar Blue determination of activity against Leishmania (single concentration and GI50)
Format: cell-based, Leishmania donovani, L. tropica
Settings: for activity against leishmaniasis: statement in words in the description; for inhibition at 50 µM: Leishmania, compound concentration 50 µM; for GI50: concentrations between 50 and 0.01 μM
Experimental: Leishmania donovani MHOM/SD/1962/1S-012D and L. tropica MHOM/IS/1990/LRC-L590 protozoa were used in the tests.
Promastigotes were grown in a broth containing Medium-199 (Sigma, St. Louis, Mo.) supplemented with 2 mM L-glutamine, 100 μM adenosine, 23 μM folio acid, antibiotics (100 IU penicillin G and 100 μg/ml streptomycin), 1×BME vitamin mixture, 25 mM 2-(N-morpholin)ethanesulfonic acid (MES), 4.2 mM NaHCO3 and heat treated fetal calf serum (FCS, 10% v/v), pH being adjusted to 6.8, Promastigotes were grown at 26° C.
Axenic amastigotes of L. donovani were grown according to the procedure presented by Debrabant et al., 2004, in the RPMI 1640 broth containing 20% v/v of fetal calf serum (FCS), at 37° C., pH 5.5, Axenic amastigotes of L. tropica were grown as described for L. donovani with the exception that only 10% v/v FCS was used, at 36° C. without CO2.
Each dilution with the desired concentration of the parasite was dispensed as three parallel samples (250 μl/well) to a 96 well microtiter plate having a flat bottom (NUNC, Denmark), followed by the addition of Alamar Blue reagent (25 μl/well, ENCO). The plates were read (λcm=544 nm; λex2=590 nm) after following incubation times (3, 9, 24, 48 and 72 h) using a fluorescence microtiter plate reader (Fluoroskan, Ascent Fla., Finland).
Activity of the compounds was tested both for L. donovani and L. tropica species. Promastigotes (2×10^6 cells/ml) or axenic amastigotes (5.0×10^5 cells/ml) were introduced as three parallel samples (125 μl/well) to 96 well microtiter plates having flat bottoms, the wells containing each compound diluted in the cultivation broth (125 with final concentration of DMSO of 1%), Initially, the concentration of the compounds was […]. Amphotericin B (1 μM) was included as positive control (Sigma, St. Louis, Mo.), Broth containing DMSO was used as negative control. The parasites were tested either with or without the compounds by incubating at 26° C. (promastigotes), at 36° C. (axenic amastogotes of L. tropica) or at 37° C. (axenic amastogotes of L. donovani). After 24 hours, the Alamar Blye reagent (25 μl/well) was added, the plates were still incubater for 24 hours, followed by fluorescence determination. GI50 assay was carried out using the same procedure, the concentrations of the compounds to be tested ranging, however, between 50 and 0.01 μM.
Testing of the compounds was carried out as described in example 32.

[1] = Table 4, 24 h, then Alamar Blue 24 h, fluorescence, species and stage not given
[2] = Table 5, tested as in example 32, species and stage not stated

| Compound | Inhibition of Leishmania (%) [1] | Inhibition of Leishmania (%) [2] | other results |
| --- | --- | --- | --- |
| C=C(C)C1CCC2(C(=O)NC(CC(=O)OC)C(=O)OC)CCC3(C)C(CCC4C5(C)CCC(=O)C(C)(C)C5CCC43C)C12 (stereo not shown) [28-aspartateamide dimethyl ester of betulonic acid] | 69.3% | – | activity against leishmaniasis: considerable activity |
| Diels-Alder adduct of 3β,28-diacetoxylupa-12,18-diene and p-fluoro-4-phenylurazole | – | 47.8% | – |
| Diels-Alder adduct of lupa-12,18-diene and 4-methylurazole | – | 50.0% | – |
| C=C(C)[C@@H]1CC[C@]2(C(=O)O)CC[C@]3(C)[C@H](CC[C@@H]4[C@@]5(C)CCC(=O)C(C)(C)[C@@H]5CC[C@]43C)[C@@H]12 [betulonic acid] | 97.6% | – | activity against leishmaniasis: considerable activity |
| Diels-Alder adduct of 3β,28-diacetoxylupa-12,18-diene and indan-5-yl urazole | – | 22.5% | – |
| C=C(C)[C@@H]1CC[C@]2(COC(=O)C3C(C=C(C)C)C3(C)C)CC[C@]3(C)[C@H](CC[C@@H]4[C@@]5(C)CC[C@H](O)C(C)(C)[C@@H]5CC[C@]43C)[C@@H]12 (stereo partly shown) [betulin 28-chrysanthemate, 28-chrysanthemate of betulin] | 13.4% | – | – |
| C=C(C)[C@@H]1CC[C@]2(C=O)CC[C@]3(C)[C@H](CC[C@@H]4[C@@]5(C)CCC(=O)C(C)(C)[C@@H]5CC[C@]43C)[C@@H]12 [betulonic aldehyde, reference compound] | 46.2% | – | – |
| Diels-Alder adduct of 3β,28-diacetoxylupa-12,18-diene and 1,3-dioxol-5-ylurazole | – | 52.2% | activity against leishmaniasis: considerable activity |
| C=C(C)[C@@H]1CC[C@]2(/C=N/O)CC[C@]3(C)[C@H](CC[C@@H]4[C@@]5(C)CC[C@H](O)C(C)(C)[C@@H]5CC[C@]43C)[C@@H]12 [betulin 28-oxime] | 66.8% | – | – |
| betulin 28-acetic acid methyl ester [betulin 28-acetic acid methylester] | – | – | Inhibition of Leishmania (%) (Table 4, compound concentration, 24 h, then Alamar Blue 24 h, fluorescence, species and stage not given): 95.3%; activity against leishmaniasis: considerable activity |
| C=C(C)[C@@H]1CC[C@]2(COC(=O)c3ccccc3NC(C)=O)CC[C@]3(C)C(CCC4[C@@]5(C)CC[C@H](O)C(C)(C)C5CC[C@]43C)C12 (stereo partly shown) [28-N-acetylanthranilic acid ester of betulin] | 59.2% | – | activity against leishmaniasis: considerable activity |
| CC(C)[C@@H]1CC[C@]2(C(=O)O)CC[C@]3(C)[C@H](CC[C@@H]4[C@@]5(C)CCC(=O)C(C)(C)[C@@H]5CC[C@]43C)[C@@H]12 [20,29-hydrobetulonic acid, 20,29-dihydrobetulonic acid] | 73.4% | – | – |
| C=C(C)[C@@H]1CC[C@]2(CO)CC[C@]3(C)[C@H](CC[C@@H]4[C@@]5(C)CC=CC(C)(C)[C@@H]5CC[C@]43C)[C@@H]12 [2,3-didehydro-3-deoxybetulin, reference compound] | 13.2% | – | – |
| C[C@@H]1[C@H](O)[C@@H](C)/C=C/C=C/C=C/C=C/C=C/C=C/C=C/[C@H](O[C@@H]2O[C@H](C)[C@@H](O)[C@H](N)[C@@H]2O)C[C@@H]2O[C@](O)(C[C@@H](O)C[C@@H](O)[C@H](O)CC[C@@H](O)C[C@@H](O)CC(=O)O[C@H]1C)C[C@H](O)[C@H]2C(=O)O [amphotericine B, Amphotericin B, reference compound] | – | – | Inhibition of Leishmania (%) (Table 4, positive control at 1 μM): 55.4%; Inhibition of Leishmania (%) (Table 5, positive control at 1 μM): 55.4% |
| 28-carboxymethoxy mentholester of betulin [betulin 28-carboxymethoxy mentholester] | 16.6% | – | – |
| C=C(C)[C@@H]1CC[C@]2(C=O)CC[C@]3(C)[C@H](CC[C@@H]4[C@@]5(C)CC[C@H](O)C(C)(C)[C@@H]5CC[C@]43C)[C@@H]12 [betulinic aldehyde, reference compound] | – | – | inhibition at 50 µM [1]: 65% |
| Diels-Alder adduct of 3β,28-diacetoxylupa-12,18-diene and p-acetoxy-4-phenylurazole | – | 44.7% | – |

| Compound | Inhibition of Leishmania (%) [1] | Inhibition of Leishmania (%) [2] | other results |
| --- | --- | --- | --- |
| Diels-Alder adduct of 3β,28-diacetoxylupa-12,18-diene and m-chloro-4-phenylurazole | – | 29.7% | – |
| Diels-Alder adduct of 3β,28-diacetoxylupa-12,18-diene and m-nitroxy-4-phenylurazole | – | 29.5% | – |
| C=C(C)[C@@H]1CC[C@]2(C(=O)O)CC[C@]3(C)[C@H](CC[C@@H]4[C@@]5(C)CC[C@H](O)C(C)(C)[C@@H]5CC[C@]43C)[C@@H]12 [betulinic acid, reference compound] | – | – | inhibition at 50 µM [1]: 39.8% |
| Diels-Alder adduct of 3β,28-diacetoxylupa-12,18-diene and 4-phenylurazole | – | 36.2% | – |
| C=C(C)C1CCC2(C(=O)OC)CCC3(C)C(CCC4C5(C)CCC(=O)C(C)(C)C5CCC43C)C12 (stereo not shown) [28-methylester of betulonic acid] | 40.1% | – | – |
| C=C(C)C1CCC2(C#N)CCC3(C)C(CCC4C5(C)CCC(=NOC(C)=O)C(C)(C)C5CCC43C)C12 (stereo not shown) [betulin 3-acetoxyoxime-28-nitrile] | 66.4% | – | activity against leishmaniasis: considerable activity |
| Diels-Alder adduct of 3β,28-diacetoxylupa-12,18-diene and 4-benzoylurazole | – | 24.7% | – |
| Diels-Alder adduct of 3β,28-diacetoxylupa-12,18-diene and urazole | – | 87.6% | GI50 (Table 5): 25.5 µM; activity against leishmaniasis: considerable activity |
| Diels-Alder adduct of 3β,28-diacetoxylupa-12,18-diene and 1-naphthylurazole | – | 57.7% | activity against leishmaniasis: considerable activity |
| C=C(C)[C@@H]1CC[C@]2(/C=N/O)CC[C@]3(C)[C@H](CC[C@@H]4[C@@]5(C)CC/C(=N\O)C(C)(C)[C@@H]5CC[C@]43C)[C@@H]12 [betulin 3,28-dioxime] | 72.4% | – | – |
| Dials-Alder adduct of 3β,28-diacetoxylupa-12,18-diene and p-chloro-4-phenylurazole | – | 27.3% | – |
| Diels-Alder adduct of 3β,28-diacetoxylupa-12,18-diene and m-methoxy-4-phenylurazole | – | 43.5% | – |
| Diels-Alder adduct of 3β,28-diacetoxylupa-12,18-diene and 4-methylurazole | – | 98.2% | GI50 (Table 5): 8.9 µM; activity against leishmaniasis: considerable activity |
| Diels-Alder adduct of lupa-12,18-diene and 4-phenylurazole | – | 47.5% | – |
| C=C(C)C1CCC2(COC(C)=O)CCC3(C)C(CCC4C5(C)CCC(=O)C(C)(C)C5CCC43C)C12 (stereo not shown) [28-acetate of betulonic alcohol] | 40.6% | – | – |
| C=C(C)[C@@H]1CC[C@]2(CO)CC[C@]3(C)[C@H](CC[C@@H]4[C@@]5(C)CCC(=O)C(C)(C)[C@@H]5CC[C@]43C)[C@@H]12 [betulonic alcohol] | 44.0% | – | – |
| C=C(C)[C@@H]1CC[C@]2(CO)CC[C@]3(C)[C@H](CC[C@@H]4[C@@]5(C)CC[C@H](O)C(C)(C)[C@@H]5CC[C@]43C)[C@@H]12 [betulin, lup-20(29)-ene-3β,28-diol] | – | – | inhibition at 50 µM [1]: 35% |
